US9457033B2, “Steroid alkaloids and uses thereof as antimicrobial agents against electron transport-deficient microbes and as potentiators for antimicrobial agents against pathogenic bacteria” (priority 2011, dated 2016)
≈ marks a conversion by molar mass, not a printed value. Like-named read-outs stand apart in the source and are kept apart here.

What was measured:
[1] = tested on: S. aureus SCV CF1D-S; test: MIC, microdilution in BHI 48 h; type: cell-based, Staphylococcus aureus; conditions: Staphylococcus aureus, SCVCF1DS
[2] = tested on: S. aureus CF35A-L; test: MIC, microdilution in CAMHB 24 h; type: cell-based, Staphylococcus aureus; conditions: CF35A-L, Human (CF lungs), MRSA
[3] = tested on: S. aureus ATCC BAA-41; test: MIC, microdilution in CAMHB 24 h; type: cell-based, Staphylococcus aureus; conditions: ATCC BAA-41, Human (HA), MRSA
[4] = tested on: S. aureus CF1A-L (normal strain); test: MIC, microdilution in BHI 48 h; type: cell-based, Staphylococcus aureus; conditions: CF1A-L, normal strain
[5] = tested on: S. aureus MA078038; test: MIC, microdilution in CAMHB 24 h; type: cell-based, Staphylococcus aureus; conditions: MA078038, Human (CA), MRSA
[6] = tested on: S. aureus Sa220c; test: MIC, microdilution in CAMHB 24 h; type: cell-based, Staphylococcus aureus; conditions: Sa220c, Human (SSTI), MRSA
[7] = tested on: S. aureus CF2A-L; test: MIC, microdilution in CAMHB 24 h; type: cell-based; conditions: CF2A-L, Human (CF lungs)
[8] = tested on: S. aureus CF4B-L; test: MIC, microdilution in CAMHB 24 h; type: cell-based, Staphylococcus aureus; conditions: CF4B-L, Human (CF lungs)
[9] = tested on: S. aureus Newman; test: MIC, microdilution in CAMHB 24 h; type: cell-based, Staphylococcus aureus; conditions: Newman, Human (Osteo)
[10] = tested on: S. aureus Newbould (normal strain); test: MIC, microdilution in BHI 48 h; type: cell-based, Staphylococcus aureus; conditions: Newbould, normal strain
[11] = tested on: S. aureus SCV CF07-S; test: MIC, microdilution in BHI 48 h (Examples 1, 3); type: cell-based, Staphylococcus aureus
[12] = tested on: S. aureus CF1A-L; test: MIC, microdilution in CAMHB 24 h; type: cell-based, Staphylococcus aureus; conditions: CF1A-L, Human (CF lungs)
[13] = tested on: S. aureus SHY97-3906; test: MIC, microdilution in CAMHB 24 h; type: cell-based, Staphylococcus aureus; conditions: SHY97-3906, Cow (mastitis)
[14] = tested on: S. aureus 8325-4; test: MIC, microdilution in CAMHB 24 h; type: cell-based, Staphylococcus aureus; conditions: 8325-4, Laboratory strain
[15] = tested on: S. aureus SCV NewbouldΔhemB; test: MIC, microdilution in BHI 48 h; type: cell-based, Staphylococcus aureus
[16] = tested on: S. aureus ATCC 29213; test: MIC, microdilution in CAMHB 24 h, with or without tomatidine/compound; type: cell-based, Staphylococcus aureus; conditions: ATCC 29213; for Fold (−TO/+TO): tomatidine at 8 μg/ml
[17] = tested on: S. aureus Sa228c; test: MIC, microdilution in CAMHB 24 h; type: cell-based, Staphylococcus aureus; conditions: MRSA
[18] = tested on: S. aureus CF07-L (normal strain); test: MIC, microdilution in BHI 48 h (Examples 1, 3); type: cell-based, Staphylococcus aureus
[19] = tested on: S. aureus MRSA COL; test: MIC, microdilution in CAMHB 24 h; type: cell-based, Staphylococcus aureus; conditions: MRSA COL, Human (SSTI)
[20] = tested on: S. aureus CF9A-L; test: MIC, microdilution in CAMHB 24 h; type: cell-based, Staphylococcus aureus; conditions: CF9A-L, Human (CF lungs), MRSA
[21] = tested on: S. aureus CF07-L; test: MIC, microdilution in CAMHB 24 h; type: cell-based, Staphylococcus aureus; conditions: CF07-L, Human (CF lungs)
[22] = tested on: S. aureus Mu50; test: MIC, microdilution in CAMHB 24 h; type: cell-based, Staphylococcus aureus; conditions: Mu50, Human (SSTI), MRSA, VISA
[23] = tested on: S. aureus CF6B-L; test: MIC, microdilution in CAMHB 24 h; type: cell-based, Staphylococcus aureus; conditions: CF6B-L, Human (CF lungs)
[24] = tested on: S. aureus Newbould; test: MIC, microdilution in CAMHB 24 h; type: cell-based, Staphylococcus aureus; conditions: Newbould, Cow (mastitis)
[25] = tested on: S. aureus ATCC 29213; test: MIC, microdilution in BHI 48 h (Examples 1, 3); type: cell-based, Staphylococcus aureus
[26] = tested on: S. aureus CF8E-L; test: MIC, microdilution in CAMHB 24 h; type: cell-based, Staphylococcus aureus; conditions: CF8E-L, Human (CF lungs)
[27] = tested on: S. aureus N315; test: microbe, parasite or virus in culture; type: cell-based, Staphylococcus aureus; conditions: MRSA
[28] = tested on: S. aureus ATCC 43300; test: MIC, microdilution in CAMHB 24 h; type: cell-based, Staphylococcus aureus; conditions: ATCC 43300, Human (HA), MRSA
[29] = tested on: S. aureus CF7A-L; test: MIC, microdilution in CAMHB 24 h; type: cell-based, Staphylococcus aureus; conditions: CF7A-L, Human (CF lungs), MRSA
[30] = Staphylococcus aureus, read-out: MIC

What does the source list for `CC[C@H]1OC(=O)[C@H](C)[C@@H](O[C@H]2C[C@@](C)(OC)[C@@H](O)[C@H](C)O2)[C@H](C)[C@@H](O[C@@H]2O[C@H](C)C[C@H](N(C)C)[C@H]2O)[C@](C)(O)C[C@@H](C)C(=O)[C@H](C)[C@@H](O)[C@]1(C)O` [Erythromycin, erythromycin]?
MIC [1]: 0.12 µg/mL (≈ 0.164 µM); MIC [2, 30]: > 64 µg/mL; MIC ([3]; Staphylococcus aureus, ATCC BAA-41 / MRSA, read-out: MIC): > 64 µg/mL; MIC [4, 30]: 0.25 µg/mL (≈ 0.341 µM); MIC [5, 30]: 64 µg/mL (≈ 87.2 µM); MIC [6, 30]: 0.5 to 1 µg/mL (≈ 0.681 to 1.36 µM); MIC ([7]; Staphylococcus aureus, CF2AL, read-out: MIC): 0.5 µg/mL (≈ 0.681 µM); MIC ([8]; Staphylococcus aureus, CF4BL, read-out: MIC): 0.5 µg/mL (≈ 0.681 µM); MIC [9, 30]: 0.5 µg/mL (≈ 0.681 µM); MIC [10, 30]: 0.25 µg/mL (≈ 0.341 µM); MIC ([11]; CF07-S + HQNO at 20 μg/ml): 0.06 to 0.12 µg/mL; MIC ([11]; CF07-S, without HQNO): 0.12 µg/mL (≈ 0.164 µM); MIC ([11]; Staphylococcus aureus, SCVCF07S): 0.12 µg/mL (≈ 0.164 µM); MIC ([12]; Staphylococcus aureus, CF1AL, read-out: MIC): 0.25 to 0.5 µg/mL (≈ 0.341 to 0.681 µM); MIC ([13]; Staphylococcus aureus, SHY973906, read-out: MIC): 0.12 to 0.25 µg/mL (≈ 0.164 to 0.341 µM); MIC ([14]; Staphylococcus aureus, 83254, read-out: MIC): 0.25 to 0.5 µg/mL (≈ 0.341 to 0.681 µM); MIC ([15]; NewbouldΔhemB, SCV, listed as ERY): >16 µg/mL; MIC ([15]; Staphylococcus aureus): > 16 µg/mL; Fold (−TO/+TO) [16]: 1 fold; MIC ([16]; Staphylococcus aureus, ATCC29213, Human (SSTI), read-out: MIC): 0.5 µg/mL (≈ 0.681 µM); MIC ([16]; Staphylococcus aureus, ATCC29213, absence of tomatidine, read-out: MIC −TO): 0.5 µg/mL (≈ 0.681 µM); MIC ([16]; Staphylococcus aureus, ATCC29213, presence of tomatidine at 8 μg/ml, read-out: MIC +TO): 0.5 µg/mL; MIC ([17]; Staphylococcus aureus): > 64 µg/mL; MIC ([18]; CF07-L + HQNO at 20 μg/ml): 0.25 µg/mL; MIC ([18]; CF07-L, without HQNO): 0.25 µg/mL (≈ 0.341 µM); MIC ([18]; Staphylococcus aureus, CF07-L, normal strain, read-out: MIC): 0.25 µg/mL (≈ 0.341 µM); MIC [19, 30]: 0.5 µg/mL (≈ 0.681 µM); MIC [20, 30]: > 64 µg/mL; MIC ([21]; Staphylococcus aureus, CF07L, read-out: MIC): 0.5 µg/mL (≈ 0.681 µM); MIC [22, 30]: > 64 µg/mL; MIC ([23]; Staphylococcus aureus, CF6BL, read-out: MIC): 0.5 to 2 µg/mL (≈ 0.681 to 2.73 µM); MIC [24, 30]: 0.5 µg/mL (≈ 0.681 µM); MIC ([25]; ATCC 29213 + HQNO at 20 μg/ml): 0.25 µg/mL; MIC ([25]; Staphylococcus aureus, ATCC29213, ATCC 29213, without HQNO, read-out: MIC): 0.12 to 0.25 µg/mL (≈ 0.164 to 0.341 µM); MIC ([25]; Staphylococcus aureus, ATCC29213, ATCC 29213 in BHI, read-out: MIC): 0.12 to 0.25 µg/mL (≈ 0.164 to 0.341 µM); MIC ([25]; Staphylococcus aureus, ATCC29213, ATCC 29213 in MHBCA, read-out: MIC): 0.12 to 0.5 µg/mL (≈ 0.164 to 0.681 µM); MIC ([26]; Staphylococcus aureus, CF8EL, read-out: MIC): 0.5 µg/mL (≈ 0.681 µM); MIC ([27]; Staphylococcus aureus): > 64 µg/mL; MIC ([28]; Staphylococcus aureus, ATCC 43300 / MRSA, read-out: MIC): > 64 µg/mL; MIC [29, 30]: > 64 µg/mL

What does the source list for `Cc1onc(-c2ccccc2)c1C(=O)N[C@@H]1C(=O)N2[C@@H]1SC(C)(C)[C@@H]2C(=O)O` [Oxacillin, oxacillin]?
MIC [2]: >64 (R) μg/ml; MIC [3]: >64 (R) μg/ml; MIC [4]: 0.25 µg/mL (≈ 0.623 µM); MIC [5]: 64 (R) μg/ml; MIC [6]: 16-32 (R) μg/ml; MIC [7]: 0.25 µg/mL (≈ 0.623 µM); MIC [8]: 0.5 µg/mL (≈ 1.25 µM); MIC [9]: 0.5 to 1 µg/mL; MIC [10]: 0.06 to 0.12 µg/mL; MIC [12]: 0.25 to 0.5 µg/mL; MIC [13]: 0.12 to 0.25 µg/mL; MIC [14]: 0.12 µg/mL (≈ 0.299 µM); MIC ([15]; NewbouldΔhemB, SCV): 0.03 to 0.06 µg/mL; MIC ([16]; Human (SSTI)): 0.25 µg/mL (≈ 0.623 µM); MIC −TO ([16]; absence of tomatidine): 0.25 µg/mL (≈ 0.623 µM); MIC +TO ([16]; presence of tomatidine at 8 μg/ml): 0.25 µg/mL; Fold (−TO/+TO) [16]: 1 fold; MIC ([17]; Sa228c, Human (SSTI)): >64 (R) μg/ml; MIC ([18]; CF07-L + HQNO at 20 μg/ml): 0.06 to 0.12 µg/mL; MIC ([18]; CF07-L, normal strain): 0.06 to 0.12 µg/mL; MIC ([18]; CF07-L, without HQNO): 0.06 to 0.12 µg/mL; MIC [19]: >64 (R) μg/ml; MIC [20]: >64 (R) μg/ml; MIC [21]: 0.12 to 0.25 µg/mL; MIC [22]: >64 (R) μg/ml; MIC [23]: 0.25 to 1 µg/mL; MIC [24]: 0.12 µg/mL (≈ 0.299 µM); MIC ([25]; ATCC 29213 + HQNO at 20 μg/ml): 0.12 µg/mL; MIC ([25]; ATCC 29213, without HQNO): 0.12 to 0.25 µg/mL; MIC ([25]; ATCC 29213 in BHI): 0.12 to 0.25 µg/mL; MIC ([25]; ATCC 29213 in MHBCA): 0.12 to 0.5 µg/mL; MIC [26]: 0.125 µg/mL (≈ 0.311 µM); MIC ([27]; N315, Human (HA)): 8 (R) μg/ml; MIC [28]: 16-32 (R) μg/ml; MIC [29]: >64 (R) μg/ml
